In experiment [1] the target is T1, NAD-dependent protein deacetylase sirtuin-1 (Homo sapiens, UniProt Q96EB6).
T1 sequence (Q96EB6 whole entry): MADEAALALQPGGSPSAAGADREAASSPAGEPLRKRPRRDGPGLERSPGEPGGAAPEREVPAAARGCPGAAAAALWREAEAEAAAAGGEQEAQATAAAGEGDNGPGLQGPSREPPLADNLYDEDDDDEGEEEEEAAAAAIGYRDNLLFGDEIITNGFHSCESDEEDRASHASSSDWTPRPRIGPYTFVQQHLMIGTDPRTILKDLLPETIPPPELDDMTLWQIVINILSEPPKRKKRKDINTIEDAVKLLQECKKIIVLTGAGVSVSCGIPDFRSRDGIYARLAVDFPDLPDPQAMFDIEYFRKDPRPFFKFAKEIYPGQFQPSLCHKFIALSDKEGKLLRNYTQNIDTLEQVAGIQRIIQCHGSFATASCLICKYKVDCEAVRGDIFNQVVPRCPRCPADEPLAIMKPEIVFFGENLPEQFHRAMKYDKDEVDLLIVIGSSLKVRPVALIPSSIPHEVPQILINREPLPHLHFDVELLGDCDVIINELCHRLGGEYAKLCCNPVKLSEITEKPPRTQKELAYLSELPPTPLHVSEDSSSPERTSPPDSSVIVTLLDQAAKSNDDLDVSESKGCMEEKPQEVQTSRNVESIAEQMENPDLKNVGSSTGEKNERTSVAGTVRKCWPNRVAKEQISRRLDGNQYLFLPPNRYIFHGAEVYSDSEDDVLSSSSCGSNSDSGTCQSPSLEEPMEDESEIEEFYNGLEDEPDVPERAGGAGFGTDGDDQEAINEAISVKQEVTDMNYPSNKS
Kind of experiment: Inhibition of N-terminal hexa-His-tagged human SIRT1 (156 to 664 residues) expressed in Escherichia coli BL21 (DE3) assessed as deacetylation of Abz-labeled acetyl peptide using Abz-GVLKacAYNO2GY-NH2 peptide as substrate incubated for 30 mins in presence of NAD+ by fluorescence microplate reader assay.

Experiment [2] has as its target NAD-dependent protein deacylase sirtuin-6 (Homo sapiens, UniProt Q8N6T7). Kind of experiment: Inhibition of recombinant N-terminal hexa-His-tagged SIRT6 (3 to 318 residues) (unknown origin) expressed in Escherichia coli BL21 (DE3) using RHKKac-AMC as substrate incubated for 2 hrs in presence of NAD+ by fluorescence microplate reader assay.
Experiment [3] has as its target T2, NAD-dependent protein deacetylase sirtuin-1 (Homo sapiens) (UniProt Q96EB6).
T2 sequence (whole entry): T1 sequence (Q96EB6 whole entry)
Kind of experiment: Inhibition of SIRT1 in human SH-SY5Y cells assessed as increase in acetylated p53 level at 10 uM measured after 72 hrs in presence of ATRA by Western blot analysis. In kind it is cell-based.

Experiment [4] has as its target NAD-dependent protein deacylase sirtuin-5, mitochondrial (Homo sapiens, UniProt Q9NXA8). Put plainly: Inhibition of N-terminal 8His-tagged human SIRT5 (34 to 302 residues) expressed in Escherichia coli Rosetta2 (DE3) using Abz-GVLKacAYNO2GY-NH2 peptide as substrate incubated for 30 mins in presence of NAD+ by fluorescence microplate reader assay.
In experiment [5] the target is T3, NAD-dependent protein deacetylase sirtuin-2 (Homo sapiens, UniProt Q8IXJ6).
T3 sequence (Q8IXJ6 whole entry): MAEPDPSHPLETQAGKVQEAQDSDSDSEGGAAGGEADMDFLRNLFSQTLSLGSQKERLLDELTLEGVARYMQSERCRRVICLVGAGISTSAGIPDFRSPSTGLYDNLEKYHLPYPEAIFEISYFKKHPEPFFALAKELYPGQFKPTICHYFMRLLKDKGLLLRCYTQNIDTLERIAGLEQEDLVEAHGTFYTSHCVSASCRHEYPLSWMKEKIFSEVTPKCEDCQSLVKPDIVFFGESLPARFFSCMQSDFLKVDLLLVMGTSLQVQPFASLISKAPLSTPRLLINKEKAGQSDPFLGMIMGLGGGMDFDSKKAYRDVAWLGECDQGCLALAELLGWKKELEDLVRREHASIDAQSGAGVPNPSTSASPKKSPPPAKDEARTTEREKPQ
Kind of experiment: Inhibition of GST-fusion tagged human SIRT2 (34 to 356 residues) expressed in Escherichia coli BL21 (DE3) using Abz-GVLKacAYNO2GY-NH2 peptide as substrate incubated for 30 mins in presence of NAD+ by fluorescence microplate reader assay.

Experiment [6] addresses T2, NAD-dependent protein deacetylase sirtuin-1 (Homo sapiens). Kind of experiment: Inhibition of SIRT1 in human SH-SY5Y cells assessed as increase in acetylated p53 level at 10 uM by Western blot analysis. The experiment is classed as cell-based. (In general: A western blot detects proteins with antibodies after separation by electrophoresis.)
Experiment [7] has the same target. Put plainly: Inhibition of SIRT1 in human SH-SY5Y cells assessed as increase in ratio of acetylated p53 to p53 level by Western blot analysis. The experiment is classed as cell-based. Conditions: dose 0.1-50 µM.

Structures are written as SMILES. Activity calls are given as the source filed them. The rule behind the calls is not given here.

NAD-dependent protein deacylase sirtuin-6, sequence (Q8N6T7 whole entry, the tested form may be a part): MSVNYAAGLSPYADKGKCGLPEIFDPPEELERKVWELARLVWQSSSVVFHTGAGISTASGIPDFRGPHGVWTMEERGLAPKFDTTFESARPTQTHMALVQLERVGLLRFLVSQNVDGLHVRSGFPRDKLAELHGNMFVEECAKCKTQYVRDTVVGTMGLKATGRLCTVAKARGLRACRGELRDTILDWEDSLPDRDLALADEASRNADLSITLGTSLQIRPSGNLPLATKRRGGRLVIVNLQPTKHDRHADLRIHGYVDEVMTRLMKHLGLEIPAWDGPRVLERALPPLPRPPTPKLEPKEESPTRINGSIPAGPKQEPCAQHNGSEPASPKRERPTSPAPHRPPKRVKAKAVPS
NAD-dependent protein deacylase sirtuin-5, mitochondrial, sequence (Q9NXA8 whole entry, the tested form may be a part): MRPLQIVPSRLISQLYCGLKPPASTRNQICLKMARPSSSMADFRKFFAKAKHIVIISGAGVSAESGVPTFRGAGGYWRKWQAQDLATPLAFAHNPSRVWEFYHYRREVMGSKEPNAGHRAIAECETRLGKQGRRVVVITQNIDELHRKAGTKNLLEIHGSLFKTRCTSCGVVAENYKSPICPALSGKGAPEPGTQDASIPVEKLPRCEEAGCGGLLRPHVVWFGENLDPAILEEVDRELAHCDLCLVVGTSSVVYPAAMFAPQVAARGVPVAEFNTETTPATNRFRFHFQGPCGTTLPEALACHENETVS

As usually defined, the IC50 is the concentration that gives 50% inhibition. In the case of `CC1(c2ccccc2)OC(=O)C(=Cc2ccc(O)cc2)C(=O)O1` (stereo not given), the half-maximal inhibitory concentration (IC50) in experiment [1] (read-out: IC50) was determined as 7.06 µM.
As for `COc1cc(C=C2C(=O)OC(c3ccccc3)OC2=O)cc(I)c1O` (stereo not given), the IC50 result in experiment [2] was “Not Active”; in experiment [4] (read-out: IC50) it was 22.4 µM; in experiment [1] (read-out: IC50), 0.89 µM; in experiment [5], 49.4 µM. Besides, the “increase in acetylated p53 level (qualitative)” value (shortened to “increase in acetylated p53 level”) in experiment [3] is “Active”.
As to `CCOc1cc(C=C2C(=O)OC(C)(c3ccccc3)OC2=O)ccc1O` (stereo not given), in experiment [1] (read-out: IC50), the concentration for half-maximal inhibition (IC50) was 7.92 µM.
The same measure, in the same setting: the same measure for `COc1cc(C=C2C(=O)OC(c3ccccc3)OC2=O)cc(C(=O)OCc2ccccc2)c1O` (stereo not given): 2.66 µM.
On to `O=C1OC(c2ccccc2)OC(=O)C1=Cc1cc(Cl)c(O)c(Cl)c1` (stereo not given), for which the IC50 entry in experiment [2] is “Not Active”; in experiment [4] (read-out: IC50) it was 37.4 µM; in experiment [1] (read-out: IC50), 1.2 µM; in experiment [5], 56.4 µM. The “increase in acetylated p53 level” value in experiment [3] is “Active”.
Take `COc1ccccc1C=C1C(=O)OC(C)(c2ccccc2)OC1=O` (stereo not given): the concentration for half-maximal inhibition (IC50) in experiment [1] (read-out: IC50) amounted to 14.4 µM.
Take `CCOc1cc(C=C2C(=O)OC(c3ccccc3)OC2=O)ccc1O` (stereo not given): the concentration for half-maximal inhibition (IC50) in experiment [1] (read-out: IC50) turned out to be 5.49 µM.
Still for that read-out and setting: with `CCc1cc(C=C2C(=O)OC(c3ccccc3)OC2=O)cc(CC)c1O` (stereo not given) the figure was 3.1 µM; with `Nc1c(I)cc(C=C2C(=O)OC(c3ccccc3)OC2=O)cc1I` (stereo not given), 10.2 µM.
On to `COc1cc(C=C2C(=O)OC(c3ccccc3)OC2=O)cc([N+](=O)[O-])c1O` (stereo not given), for which, in experiment [1] (read-out: IC50), the IC50 worked out at 3.49 µM.
In the case of `O=C1OC(c2ccccc2)OC(=O)C1=Cc1ccc(O)c(OCC2CC2)c1` (stereo not given), the IC50 in experiment [1] (read-out: IC50) is 2.48 µM.
Same read-out and setting: the same measure for `CCOc1cc(C=C2C(=O)OC(c3ccccc3)OC2=O)cc([N+](=O)[O-])c1O` (stereo not given): 3.69 µM; for `O=C1OC(c2ccccc2)OC(=O)C1=Cc1ccc(O)cc1` (stereo not given): 6.33 µM; for `Cc1cc(C=C2C(=O)OC(c3ccccc3)OC2=O)ccc1O` (stereo not given): 5.41 µM.
On the same count and under the same terms, the same measure for `O=C1OC(c2ccccc2)OC(=O)C1=Cc1ccc(O)c(OCc2ccccc2)c1` (stereo not given): 2.52 µM.
As to `CC1=C(/C=C/C(C)=C/C=C/C(C)=C/C(=O)O)C(C)(C)CCC1`, the inhibition result in experiment [6] was “inactive”.
Regarding `CCOc1cc(C=C2C(=O)OC(c3ccccc3)OC2=O)cc(Br)c1O` (stereo not given), the half-inhibitory concentration (IC50) in experiment [1] (read-out: IC50) was 1.14 µM.
Consider `O=C1OC(c2ccccc2)OC(=O)C1=Cc1cc(I)c(O)c(OCc2ccccc2)c1` (stereo not given), for which the 50% inhibitory concentration (IC50) in experiment [1] (read-out: IC50) amounted to 0.61 µM.
Same read-out and setting: with `O=C1OC(c2ccccc2)OC(=O)C1=Cc1ccc(O)c(F)c1` (stereo not given) the figure was 4.65 µM.
For `CC(C)Oc1cccc(C=C2C(=O)OC(c3ccccc3)OC2=O)c1` (stereo not given), the IC50 in experiment [1] (read-out: IC50) came out at 14 µM.
Same read-out and setting: the same measure for `O=C1OC(c2ccccc2)OC(=O)C1=Cc1ccc(Cl)cc1` (stereo not given): 18.8 µM; for `COc1cc(OC)c(C=C2C(=O)OC(C)(c3ccccc3)OC2=O)cc1Br` (stereo not given): 13.6 µM; for `COc1cc(C=C2C(=O)OC(c3ccccc3)OC2=O)cc(Cc2ccccc2)c1O` (stereo not given): 2.47 µM.
On the same count and under the same terms, with `O=C1OC(c2ccccc2)OC(=O)C1=Cc1cc(Br)c(O)c(OCc2ccccc2)c1` (stereo not given) the figure was 0.68 µM.
With `COc1cc(C=C2C(=O)OC(c3ccccc3)OC2=O)cc(Cl)c1O` (stereo not given), the “increase in acetylated p53 level” value in experiment [3] was “Active”. For the same compound, the IC50 in experiment [1] (read-out: IC50) was 1.9 µM.
Regarding `COc1ccc(C=C2C(=O)OC(c3ccccc3)OC2=O)c(OC)c1OC` (stereo not given), the half-maximal inhibitory concentration (IC50) in experiment [1] (read-out: IC50) stood at 15.8 µM.
In the case of `CC1(c2ccccc2)OC(=O)C(=Cc2ccccc2)C(=O)O1` (stereo not given), the half-inhibitory concentration (IC50) result in experiment [1] is recorded as “Not Active”.
In the case of `O=C1OC(c2ccccc2)OC(=O)C1=Cc1ccc(O)cc1F` (stereo not given), in experiment [1] (read-out: IC50), the IC50 is 3.76 µM.
`COc1cc(C=C2C(=O)OC(c3ccccc3)OC2=O)ccc1OCc1ccc2c(c1)OCO2` (stereo not given): the 50% inhibitory concentration (IC50) in experiment [1] (read-out: IC50) turned out to be 8.14 µM.
Same read-out and setting: with `O=C1OC(c2ccccc2)OC(=O)C1=Cc1cc(F)c(O)c(F)c1` (stereo not given) the figure was 4.54 µM; with `COc1cc(C=C2C(=O)OC(c3ccccc3)OC2=O)c(Br)cc1O` (stereo not given), 3.52 µM.
`NC(=O)[C@@H]1CCCc2c1[nH]c1ccc(Cl)cc21`: the IC50 entry in experiment [2] and in experiment [4] was “Not Active” throughout.
Turning to `COc1cc(C=C2C(=O)OC(c3ccccc3)OC2=O)cc(OC)c1O` (stereo not given), the IC50 in experiment [1] (read-out: IC50) is 11.9 µM.
On the same count and under the same terms, with `COc1ccc(OC)c(C=C2C(=O)OC(C)(c3ccccc3)OC2=O)c1` (stereo not given) the figure was 16.8 µM; with `O=C1OC(c2ccccc2)OC(=O)C1=Cc1ccc(O)cc1Br` (stereo not given), 3.56 µM; with `Nc1c(Br)cc(C=C2C(=O)OC(c3ccccc3)OC2=O)cc1Br` (stereo not given), 7.63 µM.
Still for that read-out and setting: with `O=C1OC(c2ccccc2)OC(=O)C1=Cc1ccc(O)c(Cl)c1` (stereo not given) the figure was 3.84 µM; with `O=C1OC(c2ccccc2)OC(=O)C1=Cc1cc(Br)c(O)c(Br)c1` (stereo not given), 0.7 µM.
As for `Cc1cc(C=C2C(=O)OC(c3ccccc3)OC2=O)cc(C)c1O` (stereo not given), the IC50 in experiment [1] (read-out: IC50) came to 3.07 µM.
On the same count and under the same terms, with `CC(C)(C)c1cc(C=C2C(=O)OC(c3ccccc3)OC2=O)cc(C(C)(C)C)c1O` (stereo not given) the figure was 19 µM.
On the same count and under the same terms, with `O=C1OC(c2ccccc2)OC(=O)C1=Cc1ccc(O)c(Br)c1` (stereo not given) the figure was 1.4 µM.
As for `O=C1OC(c2ccccc2)OC(=O)C1=Cc1cc(I)c(O)c(I)c1` (stereo not given), the half-maximal inhibitory concentration (IC50) result in experiment [2] is “Not Active”; in experiment [4] (read-out: IC50), 4.98 µM; in experiment [1] (read-out: IC50), 0.46 µM; in experiment [5] it was 52.2 µM. Besides, in experiment [3], the “increase in acetylated p53 level” value is “Active”. Also, the inhibition entry in experiment [7] is “Dose-dependent effect”.
Consider `Cc1cc(C=C2C(=O)OC(c3ccccc3)OC2=O)c(C)cc1O` (stereo not given), for which the IC50 in experiment [1] (read-out: IC50) is 4.4 µM.
The same measure, in the same setting: the same measure for `COc1cc(C=C2C(=O)OC(C)(c3ccccc3)OC2=O)ccc1OCc1cccc(C(=O)O)c1` (stereo not given): 12.9 µM.
Still for that read-out and setting: with `O=C1OC(c2ccccc2)OC(=O)C1=Cc1ccc(OCc2cccc(C(=O)O)c2)cc1` (stereo not given) the figure was 10 µM.

The record behind these values is ChEMBL document CHEMBL4680375 (ACS Med Chem Lett, 2021).
